For orientation: TGI means the concentration at which net growth stops. The low end stands for more potent growth arrest, the high end for less potent growth arrest.

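Method: 48-hour compound exposure of cells in 96-well plates, five concentrations, linear interpolation of endpoints. The concentration for full growth arrest is given as TGI.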

Among the test systems are A549 NSCLC; HCT-116 colon; UACC-257 melanoma; EKVX NSCLC; NCI-H522 lung; HCT-15 colon; OVCAR-8 ovarian; LOX IMVI melanoma; OVCAR-3 ovarian; SK-MEL-28 melanoma; SK-MEL-2 melanoma; SW-620 colon; M19-MEL melanoma; NCI-H23 lung; SF-539 CNS; XF 498 CNS; DMS 273 small cell lung; PC-3 prostate; MDA-MB-231 breast; TK-10 renal.
Holding throughout (test): DTP human tumour cell line panel, 48 h

As for `Cc1[nH]c(=O)[nH]c(=O)c1/C=C/C(=O)O` (tested in a mixture with another compound), the concentration for total growth inhibition (TGI) in the assay with A549 NSCLC, in the assay with HCT-116 colon, with UACC-257 melanoma, with EKVX NSCLC, with NCI-H522 lung and with HCT-15 colon was over 625 µM each time. Further, the TGI is over 568 µM in the assay with OVCAR-8 ovarian; over 625 µM in the assay with LOX IMVI melanoma; over 625 µM in the assay on OVCAR-3 ovarian; over 625 µM with SK-MEL-28 melanoma; over 625 µM in the assay on SK-MEL-2 melanoma; over 625 µM with SW-620 colon. In addition, the TGI with M19-MEL melanoma, in the assay on NCI-H23 lung, with SF-539 CNS, with XF 498 CNS and in the assay with DMS 273 small cell lung was over 625 µM each time.

With `O=c1[nH]nc(NCc2ccccc2)c2nnn(Cc3ccccc3)c12`, the TGI in the assay with A549 NSCLC, in the assay with HCT-116 colon, with UACC-257 melanoma, in the assay with EKVX NSCLC, in the assay on PC-3 prostate and in the assay with HCT-15 colon was over 100 µM each time. Also, the TGI with OVCAR-8 ovarian, with LOX IMVI melanoma, in the assay on OVCAR-3 ovarian, in the assay with SK-MEL-28 melanoma, in the assay on MDA-MB-231 breast and in the assay with SK-MEL-2 melanoma was over 100 µM in each case. Moreover, the TGI in the assay with TK-10 renal and with NCI-H23 lung was over 100 µM each time.

On to `COc1nc2cccc(C(O)c3ccccc3)c2nc1-c1ccccc1` (stereo not drawn), for which the concentration for total growth inhibition (TGI) came to 54.5 µM with A549 NSCLC; 16.2 µM with HCT-116 colon; 26.9 µM with UACC-257 melanoma; 41.9 µM in the assay with EKVX NSCLC; 27.2 µM in the assay on NCI-H522 lung; 65.5 µM with PC-3 prostate. Besides, the concentration for total growth inhibition (TGI) in the assay on HCT-15 colon is 26.5 µM; in the assay with OVCAR-8 ovarian, over 100 µM; in the assay on LOX IMVI melanoma, 22 µM; in the assay with OVCAR-3 ovarian, 20.4 µM; with SK-MEL-28 melanoma, over 100 µM; in the assay on MDA-MB-231 breast, 31.9 µM. In addition, the TGI with SK-MEL-2 melanoma is 33.3 µM; with SW-620 colon it was 16.6 µM; in the assay on TK-10 renal, over 100 µM; in the assay on NCI-H23 lung it was 35.5 µM; with SF-539 CNS it was 8.23 µM.

Consider `CSCC[C@@H]1C(=O)N(C)[C@H](C(C)(C)C)N1C(=O)c1ccccc1`, for which the TGI in the assay on A549 NSCLC, in the assay with HCT-116 colon, in the assay with UACC-257 melanoma, with EKVX NSCLC, in the assay with NCI-H522 lung and in the assay on HCT-15 colon was over 100 µM in each case. Also, the concentration for total growth inhibition (TGI) with OVCAR-8 ovarian, in the assay on LOX IMVI melanoma, with OVCAR-3 ovarian, in the assay with SK-MEL-28 melanoma, in the assay on SK-MEL-2 melanoma and with SW-620 colon was over 100 µM throughout. For the same compound, the total growth inhibition concentration (TGI) in the assay with M19-MEL melanoma, in the assay on NCI-H23 lung, with SF-539 CNS, in the assay on XF 498 CNS and with DMS 273 small cell lung was over 100 µM throughout.

As to `OCC1COc2cc(Cl)c(Cl)cc2O1` (stereo not drawn), the total growth inhibition concentration (TGI) in the assay on A549 NSCLC, in the assay on HCT-116 colon, in the assay on EKVX NSCLC, with NCI-H522 lung, in the assay with PC-3 prostate and in the assay with HCT-15 colon was over 10 µM in each case. Also, the TGI in the assay on OVCAR-8 ovarian, with LOX IMVI melanoma, in the assay with OVCAR-3 ovarian, in the assay with SK-MEL-28 melanoma, in the assay with MDA-MB-231 breast and in the assay with SK-MEL-2 melanoma was over 10 µM in each case. Further, the TGI with SW-620 colon, in the assay on TK-10 renal, in the assay on NCI-H23 lung and in the assay with SF-539 CNS was over 10 µM throughout.

For `COc1cc(C2c3cc4c(cc3[C@@H](Nc3cccc(CO)c3)C3COC(=O)[C@H]23)OCO4)cc(OC)c1O` (stereo partly drawn), the concentration for total growth inhibition (TGI) with A549 NSCLC was found to be 1.96 µM; in the assay on HCT-116 colon it was 11.6 µM; with UACC-257 melanoma it was 5.04 µM; in the assay with EKVX NSCLC, 19.8 µM; with NCI-H522 lung it was 3.52 µM; with HCT-15 colon, 2.86 µM. The TGI was 16.2 µM in the assay on OVCAR-8 ovarian; 3.74 µM with LOX IMVI melanoma; 13.4 µM with OVCAR-3 ovarian; 22.7 µM with SK-MEL-28 melanoma; 6.2 µM with SK-MEL-2 melanoma; over 41.3 µM in the assay on SW-620 colon. Further, the concentration for total growth inhibition (TGI) in the assay on M19-MEL melanoma was 32.6 µM; in the assay on NCI-H23 lung, 2.77 µM; in the assay on SF-539 CNS, 1.99 µM; in the assay on XF 498 CNS it was 5.63 µM; with DMS 273 small cell lung it was 1.76 µM.

The record behind these values is PubChem BioAssay (NCI).
